Numbered stars: 1 amine (or outer) side, 2 acyl side, 3 side chain; on linkers, the order of the positions; unused ones are H or OH. Bridge positions count the residues as written; N and C are the ends. Square brackets hold non-standard residues; d marks the D form. Peptide text beside a SMILES is read from it. X4 = NC(=O)C[C@H](N[*:1])C(=O)C1CCC[C@H]1C(=O)[*:2]; X8 = C[C@@H](C(=O)[*:2])N(CCC(F)(F)F)[*:1]; N(2-hydroxyethyl)Ala = C[C@H](NCCO)C(=O)O; X3 = CCCC[C@@H](C(=O)[*:2])N(CCO)[*:1]; X7 = COCCN([C@@H](C)C(=O)[*:2])[*:1]; X1 = O=C(CN(CCC(F)(F)F)[*:1])[*:2]; Gly(N-2-aminoethyl) = NCCNCC(=O)O; Hyp = O=C(O)[C@@H]1C[C@@H](O)CN1; Gly(N-CH2CH2OH) = O=C(O)CNCCO; NMeNle = CCCC[C@H](NC)C(=O)O; NEtAla = CCN[C@@H](C)C(=O)O; NMeA = CN[C@@H](C)C(=O)O; Dab = NCC[C@H](N)C(=O)O; Nme = COCCNCC(=O)O
Each compound was assayed against T1, PD-1-Ig binding to PD-L1-TVMV-His (PD-L1-His) (Homo sapiens, UniProt Q9NZQ7) (assay: PD-1/PD-L1 Homogenous Time-Resolved Fluorescence (HTRF) binding assay). Conditions: numeric value; PD-L1-His 10 nM, PD-1-Ig 20 nM.
T1 construct: hPDL1(19-239)-TVMV-His; made in house; host or cells: HEK293T
From the text: Methods for Testing the Ability of Macrocyclic Peptides to Compete for the Binding of Pd-1 to Pd-L1 Using Homogenous Time-Resolved Fluorescence (HTRF) Binding Assays
The ability of the macrocyclic peptides of the present disclosure to bind to PD-L1 was investigated using a PD-1/PD-L1 Homogenous Time-Resolved Fluorescence (HTRF) binding assay.
Homogenous Time-Resolved Fluorescence (HTRF) Assays of Binding of Soluble PD-1 to Soluble PD-L1. Soluble PD-1 and soluble PD-L1 refers to proteins with carboxyl-end truncations that remove the transmembrane-spanning regions and are fused to heterologous sequences, specifically the Fc portion of the human immunoglobuling G sequence (Ig) or the hexahistidine epitope tag (His). All binding studies were performed in an HTRF assay buffer consisting of dPBS supplemented with 0.1% (w/v) bovine serum albumin and 0.05% (v/v) Tween-20. For the PD-1-Ig/PD-L1-His binding assay, inhibitors were pre-incubated with PD-L1-His (10 nM final) for 15 m in 4 μl of assay buffer, followed by addition of PD-1-Ig (20 nM final) in 1 μl of assay buffer and further incubation for 15 m. PD-L1 fusion proteins from either human, cynomologous macaques, mouse, or other species were used. HTRF detection was achieved using europium crypate-labeled anti-Ig monoclonal antibody (1 nM final) and allophycocyanin (APC) labeled anti-His monoclonal antibody (20 nM final). Antibodies were diluted in HTRF detection buffer and 5 μl was dispensed on top of binding reaction. The reaction was allowed to equilibrate for 30 minutes and signal (665 nm/620 nm ratio) was obtained using an EnVision fluorometer. Additional binding assays were established between PD-1-Ig/PD-L2-His (20 and 5 nM, respectively), CD80-His/PD-L1-Ig (100 and 10 nM, respectively) and CD80-His/CTLA4-Ig (10 and 5 nM, respectively). Binding/competition studies between biotinylated Compound No. 71 and human PD-L1-His were performed as follows. Macrocyclic peptide inhibitors were pre-incubated with PD-L1-His (10 nM final) for 60 minutes in 4 μl of assay buffer followed by addition of biotinylated Compound No. 71 (0.5 nM final) in 1 μl of assay buffer. Binding was allowed to equilibrate for 30 minutes followed by addition of europium crypated labeled Streptavidin (2.5 pM final) and APC-labeled anti-His (20 nM final) in 5 μl of HTRF buffer. The reaction was allowed to equilibrate for 30 m and signal (665 nm/620 nm ratio) was obtained using an EnVision fluorometer.
Recombinant Proteins. Carboxyl-truncated human PD-1 (amino acids 25-167) with a C-terminal human Ig epitope tag [hPD-1 (25-167)-3S-IG] and human PD-L1 (amino acids 18-239) with a C-terminal His epitope tag [hPD-L1(19-239)-tobacco vein mottling virus protease cleavage site (TVMV)-His] were expressed in HEK293T cells and purified sequentially by recombinant Protein A affinity chromatography and size exclusion chromatography. Human PD-L2-His (Sino Biologicals), CD80-His (Sino Biologicals), CTLA4-Ig (RnD Systems) were all obtained through commercial sources.
Ranges are as follows: A=0.10-10 μM; B=0.01-0.099 μM; C=0.005-0.0099 μM.

T1 sequence (Q9NZQ7 with tags, fused parts or gaps): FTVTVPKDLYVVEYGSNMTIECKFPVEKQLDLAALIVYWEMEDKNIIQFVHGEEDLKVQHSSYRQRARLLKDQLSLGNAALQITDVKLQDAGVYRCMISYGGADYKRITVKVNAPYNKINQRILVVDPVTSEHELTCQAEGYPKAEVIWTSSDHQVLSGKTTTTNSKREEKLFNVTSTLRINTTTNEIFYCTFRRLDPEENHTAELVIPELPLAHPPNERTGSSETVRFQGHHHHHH

| Compound | IC50 [nM] |
| --- | --- |
| CCCC[C@H]1C(=O)N[C@@H](CC(C)C)C(=O)N[C@H](C(=O)NCC(N)=O)CSCC(=O)N[C@@H](Cc2ccc(O)cc2)C(=O)N(C)[C@@H](C)C(=O)N[C@@H](CC(N)=O)C(=O)N2CCC[C@H]2C(=O)N[C@@H](Cc2cnc[nH]2)C(=O)N[C@@H](CCC(=O)O)C(=O)N2C[C@H](O)C[C@H]2C(=O)N[C@@H](Cc2c[nH]c3ccccc23)C(=O)N[C@@H](CCN)C(=O)N[C@@H](Cc2c[nH]c3ccccc23)C(=O)N(CCC(F)(F)F)CC(=O)N1C [Example 3038] ({CH2CO}-Y[NMeA]NPHE[Hyp]W[Dab]W[X1][NMeNle]LCG-NH2; thioether N-14) | 2360 |

Same assay, conditions: range class; PD-L1-His 10 nM, PD-1-Ig 20 nM

| Compound | IC50 [nM] |
| --- | --- |
| CCCC[C@H]1C(=O)N[C@@H](CC(C)C)C(=O)N[C@H](C(=O)NCC(N)=O)CSCC(=O)N[C@@H](Cc2ccc(O)cc2)C(=O)N(C)[C@@H](C)C(=O)N[C@@H](CC(N)=O)C(=O)N2CCC[C@H]2C(=O)N[C@@H](Cc2cnc[nH]2)C(=O)N[C@@H](CCC(=O)O)C(=O)N2C[C@H](O)C[C@H]2C(=O)N[C@@H](Cc2c[nH]c3ccccc23)C(=O)N[C@@H](CCN)C(=O)N[C@@H](Cc2c[nH]c3ccccc23)C(=O)N(CCO)[C@@H](C)C(=O)N1C [Example 3033] ({CH2CO}-Y[NMeA]NPHE[Hyp]W[Dab]W[N(2-hydroxyethyl)Ala][NMeNle]LCG-NH2; thioether N-14) | 100 to 10000 |
| CCCC[C@H]1C(=O)N(C)[C@@H](CCCC)C(=O)N[C@@H](CC(C)C)C(=O)N[C@H](C(=O)NCC(N)=O)CSCC(=O)N[C@@H](Cc2ccc(O)cc2)C(=O)N(CC(=O)O)CC(=O)N[C@@H](CC(N)=O)C(=O)N2CCC[C@H]2C(=O)N[C@@H](Cc2cnc[nH]2)C(=O)N[C@@H](CCC(=O)O)C(=O)N2C[C@H](O)C[C@H]2C(=O)N[C@@H](Cc2c[nH]c3ccccc23)C(=O)N[C@@H](CCN)C(=O)N[C@@H](Cc2csc3ccccc23)C(=O)N1C [Example 5003] | 10 to 99 |
| CCCC[C@H]1C(=O)N[C@@H](CC(C)C)C(=O)N[C@H](C(=O)NCC(N)=O)CSCC(=O)N[C@@H](Cc2ccc(O)cc2)C(=O)N(C)[C@@H](C)C(=O)N[C@@H](CC(N)=O)C(=O)N2CCC[C@H]2C(=O)N[C@@H](Cc2cnc[nH]2)C(=O)N[C@@H](CCC(=O)O)C(=O)N2C[C@H](O)C[C@H]2C(=O)N[C@@H](Cc2c[nH]c3ccccc23)C(=O)N[C@@H](CCN)C(=O)N[C@@H](Cc2c[nH]c3ccccc23)C(=O)N(CCC(F)(F)F)[C@@H](C)C(=O)N1C [Example 3041] ({CH2CO}-Y[NMeA]NPHE[Hyp]W[Dab]W[X8][NMeNle]LCG-NH2; thioether N-14) | 10 to 99 |
| CCCC[C@H]1C(=O)N(CC)[C@@H](C)C(=O)N[C@@H](CC(C)C)C(=O)N[C@H](C(=O)NCC(N)=O)CSCC(=O)N[C@@H](Cc2ccc(O)cc2)C(=O)N(C)[C@@H](C)C(=O)N[C@@H](CC(N)=O)C(=O)C2CCC[C@H]2C(=O)N[C@@H](Cc2cnc[nH]2)C(=O)N[C@@H](CCC(=O)O)C(=O)N2C[C@H](O)C[C@H]2C(=O)N[C@@H](Cc2c[nH]c3ccccc23)C(=O)N[C@@H](CCN)C(=O)N[C@@H](Cc2c[nH]c3ccccc23)C(=O)N1C (stereo partly drawn) [Example 3020] ({CH2CO}-Y[NMeA][X4]HE[Hyp]W[Dab]W[NMeNle][NEtAla]LCG-NH2; thioether N-13) | 5 to 9.9 |
| CCCC[C@H]1C(=O)N(C)[C@@H](CCCC)C(=O)N[C@@H](CC(C)C)C(=O)N[C@H](C(=O)NCC(N)=O)CSCC(=O)N[C@@H](Cc2ccc(O)cc2)C(=O)N(CCOC)[C@@H](C)C(=O)N[C@@H](CC(N)=O)C(=O)N2CCC[C@H]2C(=O)N[C@@H](Cc2cnc[nH]2)C(=O)N[C@@H](CCC(=O)O)C(=O)N2C[C@H](O)C[C@H]2C(=O)N[C@@H](Cc2c[nH]c3ccccc23)C(=O)N[C@@H](CCN)C(=O)N[C@@H](Cc2c[nH]c3ccccc23)C(=O)N1C [Example 3026] ({CH2CO}-Y[X7]NPHE[Hyp]W[Dab]W[NMeNle][NMeNle]LCG-NH2; thioether N-14) | 10 to 99 |
| CCCC[C@H]1C(=O)N[C@@H](CC(C)C)C(=O)N[C@H](C(=O)NCC(N)=O)CSCC(=O)N[C@@H](Cc2ccc(O)cc2)C(=O)N(C)[C@@H](C)C(=O)N[C@@H](CC(N)=O)C(=O)N2CCC[C@H]2C(=O)N[C@@H](Cc2cnc[nH]2)C(=O)N[C@@H](CCC(=O)O)C(=O)N2C[C@H](O)C[C@H]2C(=O)N[C@@H](Cc2c[nH]c3ccccc23)C(=O)N[C@@H](CCN)C(=O)N[C@@H](Cc2c[nH]c3ccccc23)C(=O)N(CCO)[C@@H](CCCC)C(=O)N1C [Example 3030] ({CH2CO}-Y[NMeA]NPHE[Hyp]W[Dab]W[X3][NMeNle]LCG-NH2; thioether N-14) | 10 to 99 |

More lines, now with the values ahead:

| IC50 [nM] | Compound |
| --- | --- |
| 10 to 99 | CCCC[C@H]1C(=O)N(C)[C@@H](CCCC)C(=O)N[C@@H](CC(C)C)C(=O)N[C@H](C(=O)NCC(N)=O)CSCC(=O)N[C@@H](Cc2ccc(O)cc2)C(=O)N(C)[C@@H](C)C(=O)N[C@@H](CC(N)=O)C(=O)N(CCN)CC(=O)N[C@@H](Cc2cnc[nH]2)C(=O)N[C@@H](CCC(=O)O)C(=O)N2C[C@H](O)C[C@H]2C(=O)N[C@@H](Cc2c[nH]c3ccccc23)C(=O)N[C@@H](CCN)C(=O)N[C@@H](Cc2c[nH]c3ccccc23)C(=O)N1C [Example 3014] ({CH2CO}-Y[NMeA]N[Gly(N-2-aminoethyl)]HE[Hyp]W[Dab]W[NMeNle][NMeNle]LCG-NH2; thioether N-14) |
| 10 to 99 | CCCC[C@H]1C(=O)N(C)[C@@H](CCCC)C(=O)N[C@@H](CC(C)C)C(=O)N[C@H](C(=O)NCC(N)=O)CSCC(=O)N[C@@H](Cc2ccc(O)cc2)C(=O)N(C)[C@@H](C)C(=O)N[C@@H](CC(N)=O)C(=O)N(CCOC)CC(=O)N[C@@H](Cc2cnc[nH]2)C(=O)N[C@@H](CCC(=O)O)C(=O)N2C[C@H](O)C[C@H]2C(=O)N[C@@H](Cc2c[nH]c3ccccc23)C(=O)N[C@@H](CCN)C(=O)N[C@@H](Cc2c[nH]c3ccccc23)C(=O)N1C [Example 3009] ({CH2CO}-Y[NMeA]N[Nme]HE[Hyp]W[Dab]W[NMeNle][NMeNle]LCG-NH2; thioether N-14) |
| 10 to 99 | CCCC[C@H]1C(=O)N(C)[C@@H](CCCC)C(=O)N[C@@H](CC(C)C)C(=O)N[C@H](C(=O)NCC(N)=O)CSCC(=O)N[C@@H](Cc2ccc(O)cc2)C(=O)N(CCO)CC(=O)N[C@@H](CC(N)=O)C(=O)N2CCC[C@H]2C(=O)N[C@@H](Cc2cnc[nH]2)C(=O)N[C@@H](CCC(=O)O)C(=O)N2C[C@H](O)C[C@H]2C(=O)N[C@@H](Cc2c[nH]c3ccccc23)C(=O)N[C@@H](CCN)C(=O)N[C@@H](Cc2c[nH]c3ccccc23)C(=O)N1C [Example 3045] ({CH2CO}-Y[Gly(N-CH2CH2OH)]NPHE[Hyp]W[Dab]W[NMeNle][NMeNle]LCG-NH2; thioether N-14) |
| 10 to 99 | CCCC[C@H]1C(=O)N(C)[C@@H](CCCC)C(=O)N[C@@H](CC(C)C)C(=O)N[C@H](C(=O)NCC(N)=O)CSCC(=O)N[C@@H](Cc2ccc(O)cc2)C(=O)N(C)[C@@H](C)C(=O)N[C@@H](CC(N)=O)C(=O)N(CCO)CC(=O)N[C@@H](Cc2cnc[nH]2)C(=O)N[C@@H](CCC(=O)O)C(=O)N2C[C@H](O)C[C@H]2C(=O)N[C@@H](Cc2c[nH]c3ccccc23)C(=O)N[C@@H](CCN)C(=O)N[C@@H](Cc2c[nH]c3ccccc23)C(=O)N1C [Example 3016] ({CH2CO}-Y[NMeA]N[Gly(N-CH2CH2OH)]HE[Hyp]W[Dab]W[NMeNle][NMeNle]LCG-NH2; thioether N-14) |
| 10 to 99 | CCCC[C@H]1C(=O)N(C)[C@@H](CCCC)C(=O)N[C@@H](CC(C)C)C(=O)N[C@H](C(=O)NCC(N)=O)CSCC(=O)N[C@@H](Cc2ccc(O)cc2)C(=O)N(CCC(F)(F)F)CC(=O)N[C@@H](CC(N)=O)C(=O)N2CCC[C@H]2C(=O)N[C@@H](Cc2cnc[nH]2)C(=O)N[C@@H](CCC(=O)O)C(=O)N2C[C@H](O)C[C@H]2C(=O)N[C@@H](Cc2c[nH]c3ccccc23)C(=O)N[C@@H](CCN)C(=O)N[C@@H](Cc2c[nH]c3ccccc23)C(=O)N1C [Example 3046] ({CH2CO}-Y[X1]NPHE[Hyp]W[Dab]W[NMeNle][NMeNle]LCG-NH2; thioether N-14) |
